pEC50: −log10 of the molar value. Where two headings read alike, the source gives them in different places.
Target: CFTR (Homo sapiens, UniProt P13569)
Assay: Membrane potential dye, Enteroid Assay A
Format: cell-based
Conditions: for Ent. A Max Activity: chloride transport as % of triple combination control (Enteroid Assay A); for pEC50: human enteroid cells, 18-24 hours, acute 10 μM forskolin and 300 nM ivacaftor, read-out: Ent. A EC50
Procedure: Base medium (ADF+++) consisted of Advanced DMEM/Ham's F12, 2 mM Glutamax, 10 mM HEPES, […] penicillin/streptomycin.
Intestinal enteroid maintenance medium (IEMM) consisted of ADF+++, 1× B27 supplement, 1× N2 supplement, 1.25 mM N-acetyl cysteine, 10 mM Nicotinamide, 50 ng/mL hEGF, 10 nM Gastrin, 1 μg/mL hR-spondin-1, 100 ng/mL hNoggin, TGF-b type 1 inhibitor A-83-01, 100 μg/mL Primocin, 10 μM P38 MAPK inhibitor SB202190.
Bath 1 Buffer consisted of 1 mM MgCl2, 160 mM NaCl, 4.5 mM KCl, 10 mM HEPES, 10 mM Glucose, 2 mM CaCl2).
Chloride Free Buffer consisted of 1 mM Magnesium Gluconate, 2 mM Calcium Gluconate, 4.5 mM Potassium Gluconate, 160 mM Sodium Gluconate, 10 mM HEPES, 10 mM Glucose.
BathI Dye Solution consisted of Bath 1 Buffer, 0.04% Pluronic F127, 20 μM Methyl Oxonol, 30 μM CaCCinh-A01, 30 μM Chicago Sky Blue.
Chloride Free Dye Solution consisted of Chloride Free Buffer, 0.04% Pluronic F127, 20 μM Methyl Oxonol, 30 μM CaCCinh-A01, 30 μM Chicago Sky Blue.
Chloride Free Dye Stimulation Solution consisted of Chloride Free Dye Solution, 10 μM forskolin, 100 μM IBMX, and 300 nM Compound III.
Human intestinal epithelial enteroid cells were obtained from the Hubrecht Institute for Developmental Biology and Stem Cell Research, Utrecht, The Netherlands and expanded in T-Flasks as previously described (Dekkers J F, Wiegerinck C L, de Jonge H R, Bronsveld I, Janssens H M, de Winter-de Groot K M, Brandsma A M, de Jong N W M, Bijvelds M J C, Scholte B J, Nieuwenhuis E E S, van den Brink S, Clevers H, van der Ent C K, Middendorp S and M Beekman J M. A functional CFTR assay using primary cystic fibrosis intestinal organoids. Nat Med. 2013 July;19(7):939-45.).
3. Enteroid Cell Harvesting and Seeding
Cells were recovered in cell recovery solution, collected by centrifugation at 650 rpm for 5 min at 4° C., resuspended in TrypLE and incubated for 5 min at 37° C. Cells were then collected by centrifugation at 650 rpm for 5 min at 4° C. and resuspended in IEMM containing 10 μM ROCK inhibitor (RI). The cell suspension was passed through a 40 μm cell strainer and resuspended at 1×10^6 cells/mL in IEMM containing 10 μM RI. Cells were seeded at 5000 cells/well into multi-well plates and incubated for overnight at 37° C., 95% humidity and 5% CO2 prior to assay.
4. Membrane Potential Dye, Enteroid Assay A
Enteroid cells were incubated with test compound in IEMM for 18-24 hours at 37° C., 95% humidity and 5% CO2. […] Briefly, cells were washed 5 times in Bath 1 Buffer. Bath 1 Dye Solution was added, and the cells were incubated for 25 min at room temperature. Following dye incubation, cells were washed 3 times in Chloride Free Dye Solution. Chloride transport was initiated by addition of Chloride Free Dye Stimulation Solution and the fluorescence signal was read for 15 min. […] Chloride transport was then expressed as a percentage of the chloride transport following treatment with 3 μM N-[(6-amino-2-pyridyl)sulfonyl]-6-(3-fluoro-5-isobutoxy-phenyl)-2-[(4S)-2,2,4-trimethylpyrrolidin-1-yl]pyridine-3-carboxamide, 3 μM (R)-1-(2,2-difluorobenzo[d][1,3]dioxol-5-yl)-N-(1-(2,3-dihydroxypropyl)-6-fluoro-2-(1-hydroxy-2-methylpropan-2-yl)-1H-indol-5-yl)cyclopropanecarboxamide and 300 nM acute N-[2,4-bis(1,1-dimethylethyl)-5-hydroxyphenyl]-1,4-dihydro-4-oxoquinoline-3-carboxamide triple combination control (% Activity).

CFTR, sequence (P13569 with tags, fused parts or gaps DEL508-508): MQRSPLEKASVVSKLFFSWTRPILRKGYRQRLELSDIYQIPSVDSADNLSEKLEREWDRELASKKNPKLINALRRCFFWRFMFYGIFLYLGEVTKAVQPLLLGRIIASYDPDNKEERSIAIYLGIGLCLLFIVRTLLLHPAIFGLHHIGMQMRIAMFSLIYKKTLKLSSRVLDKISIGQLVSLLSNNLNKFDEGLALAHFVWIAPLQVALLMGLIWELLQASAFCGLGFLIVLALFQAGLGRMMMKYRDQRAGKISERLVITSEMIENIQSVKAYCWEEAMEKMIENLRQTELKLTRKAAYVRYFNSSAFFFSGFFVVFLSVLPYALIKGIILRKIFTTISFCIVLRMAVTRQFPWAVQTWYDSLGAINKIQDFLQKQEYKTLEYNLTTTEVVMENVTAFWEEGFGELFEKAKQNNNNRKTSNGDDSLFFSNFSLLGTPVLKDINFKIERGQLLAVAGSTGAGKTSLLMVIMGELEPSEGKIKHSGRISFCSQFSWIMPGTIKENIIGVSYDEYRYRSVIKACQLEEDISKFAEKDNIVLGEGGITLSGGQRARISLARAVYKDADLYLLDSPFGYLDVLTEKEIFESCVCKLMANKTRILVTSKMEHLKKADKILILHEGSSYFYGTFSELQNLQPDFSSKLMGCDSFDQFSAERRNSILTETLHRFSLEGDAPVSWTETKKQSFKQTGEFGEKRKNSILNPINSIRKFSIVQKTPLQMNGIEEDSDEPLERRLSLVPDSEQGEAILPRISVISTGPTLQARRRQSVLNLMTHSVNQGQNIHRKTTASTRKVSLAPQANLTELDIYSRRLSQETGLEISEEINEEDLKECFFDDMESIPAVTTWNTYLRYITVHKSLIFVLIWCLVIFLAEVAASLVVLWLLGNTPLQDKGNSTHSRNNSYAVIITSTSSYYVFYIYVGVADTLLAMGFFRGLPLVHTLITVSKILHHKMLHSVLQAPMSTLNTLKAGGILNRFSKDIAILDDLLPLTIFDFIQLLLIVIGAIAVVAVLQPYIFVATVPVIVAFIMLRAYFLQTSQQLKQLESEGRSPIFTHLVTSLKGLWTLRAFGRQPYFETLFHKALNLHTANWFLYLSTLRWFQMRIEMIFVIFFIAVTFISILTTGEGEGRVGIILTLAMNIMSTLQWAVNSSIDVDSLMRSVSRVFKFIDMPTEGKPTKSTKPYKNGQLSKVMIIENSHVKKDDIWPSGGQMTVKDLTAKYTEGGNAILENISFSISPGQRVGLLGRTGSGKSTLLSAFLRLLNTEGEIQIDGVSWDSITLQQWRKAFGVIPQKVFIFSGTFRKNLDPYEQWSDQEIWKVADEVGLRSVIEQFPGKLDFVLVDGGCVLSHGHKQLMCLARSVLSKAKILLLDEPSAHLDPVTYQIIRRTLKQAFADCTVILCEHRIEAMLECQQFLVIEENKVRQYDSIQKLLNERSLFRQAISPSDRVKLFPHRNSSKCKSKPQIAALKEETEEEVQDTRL

Row | Structure (SMILES) | Ent. A Max Activity (Table 6) | pEC50 (Table 6) | Ent. A Max Activity (Table 7) | pEC50 (Table 7)
1 | COc1ccc(CN2C(=O)c3cccc(c3)S(=O)(=O)Nc3nc(cc(-c4c(C)cccc4C)n3)OC[C@H]2CC(C)C)cn1 [Compound 422] | +++ (+++ is >60%) | > 6.00 | – | –
2 | Cc1cccc(C)c1-c1cc2nc(n1)NS(=O)(=O)c1cccc(c1)C(=O)N(CC1CC1)[C@H](CC(C)C)CO2 [Compound 366] | +++ (+++ is >60%) | > 6.00 | – | –
3 | Cc1cccc(C)c1-c1cc2nc(n1)NS(=O)(=O)c1cccc(c1)C(=O)N(Cc1ccc(N3CCC(CO)CC3)nc1)[C@H](CC(C)C)CO2 [Compound 956] | – | – | +++ (+++ is >60%) | > 6.00
4 | Cc1cccc(C)c1-c1cc2nc(n1)NS(=O)(=O)c1cccc(c1)C(=O)N(CC1CCN(C)CC1)[C@H](CC(C)C)CO2 [Compound 360] | +++ (+++ is >60%) | 5.52 to 6.00 | – | –
5 | Cc1cccc(C)c1-c1cc2nc(n1)NS(=O)(=O)c1cccc(c1)C(=O)N(Cc1cnn(C)c1)[C@H](CC(C)C)CO2 [Compound 432] | +++ (+++ is >60%) | > 6.00 | – | –
6 | Cc1cccc(C)c1-c1cc2nc(n1)NS(=O)(=O)c1cccc(c1)C(=O)N(C)[C@H](CC(C)C)C(c1ccccn1)O2 (some centres unmarked) [Compound 337] | – | – | +++ (+++ is >60%) | > 6.00
7 | Cc1cccc(C)c1-c1cc2nc(n1)NS(=O)(=O)c1cccc(c1)C(=O)N(C)CC(CN1C3CCC[C@H]1CC3)O2 (some centres unmarked) [Compound 1015] | + (+ is <30%) | – | – | –
8 | Cc1cccc(C)c1-c1cc2nc(n1)NS(=O)(=O)c1cccc(c1)C(=O)N(CCC1CCOCC1)CC(c1ccc(C(C)(C)C)cc1)O2 (centres unmarked) [Compound 342] | +++ (+++ is >60%) | > 6.00 | – | –
9 | Cc1cccc(C)c1-c1cc2nc(n1)NS(=O)(=O)c1cccc(c1)C(=O)N(Cc1ccccc1C#N)[C@H](CC(C)C)CO2 [Compound 861] | ++ (++ is 30-60%) | 5.52 to 6.00 | – | –
10 | Cc1cccc(C)c1-c1cc2nc(n1)NS(=O)(=O)c1cccc(c1)C(=O)N(Cc1ccc(C3=CCN(C)CC3)cc1)[C@H](CC(C)C)CO2 [Compound 86, (11R)-6-(2,6-Dimethylphenyl)-11-isobutyl-12-[[4-(1-methyl-3,6-dihydro-2H-pyridin-4-yl)phenyl]methyl]-2,2-dioxo-9-oxa-2λ^6-thia-3,5,12,19-tetrazatricyclo[12.3.1.14,8]nonadeca-1(18),4(19),5,7,14,16-hexaen-13-one] | +++ (+++ is >60%) | > 6.00 | – | –
11 | Cc1cccc(C)c1-c1cc2nc(n1)NS(=O)(=O)c1cccc(c1)C(=O)N(Cc1cnc3ccccn13)[C@H](CC(C)C)CO2 [Compound 368] | +++ (+++ is >60%) | > 6.00 | – | –

Next, values leading:

Row | Ent. A Max Activity (Table 6) | pEC50 (Table 6) | Ent. A Max Activity (Table 7) | pEC50 (Table 7) | Structure (SMILES)
12 | – | – | ++ (++ is 30-60%) | > 6.00 | COc1ccc(CN2Cc3cccc(c3)S(=O)(=O)Nc3nc(cc(-c4c(C)cccc4C)n3)OC[C@H]2CC(C)C)cc1C(F)(F)F [Compound 1031]
13 | – | – | + (+ is <30%) | > 6.00 | Cc1cccc(C)c1-c1cc2nc(n1)NS(=O)(=O)c1cccc(c1)C(=O)N(CCC(C)(C)C)[C@H](C)CO2 [Compound 987]
14 | – | – | ++ (++ is 30-60%) | > 6.00 | Cc1cccc(C)c1-c1cc2nc(n1)NS(=O)(=O)c1cccc(c1)CN(Cc1cnc(C3CCCCC3)nc1)[C@H](CC(C)C)CO2 [Compound 1033]
15 | – | – | +++ (+++ is >60%) | > 6.00 | Cc1cccc(C)c1-c1cc2nc(n1)NS(=O)(=O)c1cccc(c1)C(=O)N(Cc1ccc(N3CCCC(C)C3)nc1)[C@H](CC(C)C)CO2 (some centres unmarked) [Compound 964]
16 | – | – | + (+ is <30%) | – | COC1CCC(CC(=O)N2Cc3cccc(c3)S(=O)(=O)Nc3nc(cc(-c4c(C)cccc4C)n3)OC[C@H]2CC(C)C)CC1 (some centres unmarked) [Compound 1047]
17 | – | – | – | > 6.00 | Cc1cccc(C)c1-c1cc2nc(n1)NS(=O)(=O)c1cccc(c1)C(=O)N(Cc1ccc(C3=CCN(C)CC3)nc1)[C@H](CC(C)C)CO2 [Compound 967]
18 | + (+ is <30%) | – | – | – | Cc1cccc(C)c1-c1cc2nc(n1)NS(=O)(=O)c1cccc(c1)C(=O)N(C)C[C@@H](CNCCC(C)(C)C)O2 [Compound 1018]
